# Measurements taken from US11370770B2, “3-arylindazoles as selective MEK4 inhibitors” (priority 2019, dated 2022).
# Assays:
# [1] = target: KIT(L576P) (Homo sapiens (Human), UniProt P10721, L576P); assay: KINOMEscan binding assay; details: percent of control
# [2] = target: ABL1(T3151)-phosphorylated (Homo sapiens (Human), UniProt P00519, T315I); assay: KINOMEscan binding assay; details: percent of control
# [3] = target: ABL1-phophorylated (Homo sapiens (Human), UniProt P00519); assay: KINOMEscan binding assay; details: percent of control
# [4] = target: CDK9 (Homo sapiens (Human), UniProt P50750); assay: KINOMEscan binding assay; details: percent of control
# [5] = target: MUSK (Homo sapiens (Human), UniProt O15146); assay: KINOMEscan binding assay; details: percent of control
# [6] = target: HIPK1 (Homo sapiens (Human), UniProt Q86Z02); assay: KINOMEscan binding assay; details: percent of control
# [7] = target: PCTK3 (Homo sapiens (Human), UniProt Q07002); assay: KINOMEscan binding assay; details: percent of control
# [8] = target: IKK-ALPHA (Homo sapiens (Human), UniProt O15111); assay: KINOMEscan binding assay; details: percent of control
# [9] = target: T1, MEK5 (Homo sapiens (Human), UniProt Q13163); assay: MEK family profiling ADP-Glo, MEK5; format: biochemical; details: Erk5 substrate; 0.6 μM ATP; read-out: IC50 MEK isoform 5
# [10] = target: CDC2L1 (Homo sapiens (Human), UniProt P21127); assay: KINOMEscan binding assay; details: percent of control
# [11] = target: TEC (Homo sapiens (Human), UniProt P42680); assay: KINOMEscan binding assay; details: percent of control
# [12] = target: SNARK (Homo sapiens (Human), UniProt Q9H093); assay: KINOMEscan binding assay; details: percent of control
# [13] = target: MARK4 (Homo sapiens (Human), UniProt Q96L34); assay: KINOMEscan binding assay; details: percent of control
# [14] = target: CDK2 (Homo sapiens (Human), UniProt P24941); assay: KINOMEscan binding assay; details: percent of control
# [15] = target: ZAP70 (Homo sapiens (Human), UniProt P43403); assay: KINOMEscan binding assay; details: percent of control
# [16] = target: NLK (Homo sapiens (Human), UniProt Q9UBE8); assay: KINOMEscan binding assay; details: percent of control
# [17] = target: MAP3K4 (Homo sapiens (Human), UniProt Q9Y6R4); assay: KINOMEscan binding assay; details: percent of control
# [18] = target: EPHA2 (Homo sapiens (Human), UniProt P29317); assay: KINOMEscan binding assay; details: percent of control
# [19] = target: MEK2 (Homo sapiens (Human), UniProt P36507); assay: MEK family profiling ADP-Glo, MEK2; format: biochemical; details: Erk2 substrate; 0.6 μM ATP; read-out: IC50 MEK isoform 2
# [20] = target: SIK2 (Homo sapiens (Human), UniProt Q9H0K1); assay: KINOMEscan binding assay; details: percent of control
# [21] = target: CHEK2 (Homo sapiens (Human), UniProt O96017); assay: KINOMEscan binding assay; details: percent of control
# [22] = target: EGFR(L747-S752DEL, P753S) (Homo sapiens (Human), UniProt P00533, DEL747-752/P753S); assay: KINOMEscan binding assay; details: percent of control
# [23] = target: PIK4CB (Homo sapiens (Human), UniProt Q9UBF8); assay: KINOMEscan binding assay; details: percent of control
# [24] = target: RAF1 (Homo sapiens (Human), UniProt P04049); assay: KINOMEscan binding assay; details: percent of control
# [25] = test system: panel of 57 kinases; details: 10 μM; S(35) criterion
# [26] = target: PHKG2 (Homo sapiens (Human), UniProt P15735); assay: KINOMEscan binding assay; details: percent of control
# [27] = target: VEGFR2 (Homo sapiens (Human), UniProt P35968); assay: KINOMEscan binding assay; details: percent of control
# [28] = target: MEK1 (Homo sapiens (Human), UniProt Q02750); assay: MEK family profiling ADP-Glo, MEK1; format: biochemical; details: Erk2 substrate; 0.6 μM ATP; read-out: IC50 MEK isoform 1
# [29] = target: ABL2 (Homo sapiens (Human), UniProt P42684); assay: KINOMEscan binding assay; details: percent of control
# [30] = target: EPHA6 (Homo sapiens (Human), UniProt Q9UF33); assay: KINOMEscan binding assay; details: percent of control
# [31] = target: T1, MEK5; assay: KINOMEscan binding assay; details: percent of control
# [32] = target: MLK2 (Homo sapiens (Human), UniProt Q02779); assay: KINOMEscan binding assay; details: percent of control
# [33] = target: PRKCD (Homo sapiens (Human), UniProt Q05655); assay: KINOMEscan binding assay; details: percent of control
# [34] = target: ICK (Homo sapiens (Human), UniProt Q9UPZ9); assay: KINOMEscan binding assay; details: percent of control
# [35] = target: MKNK2 (Homo sapiens (Human), UniProt Q9HBH9); assay: KINOMEscan binding assay; details: percent of control
# [36] = target: MEK3 (Homo sapiens (Human), UniProt P46734); assay: MEK family profiling ADP-Glo, MEK3; format: biochemical; details: p38α substrate; 0.6 μM ATP; read-out: IC50 MEK isoform 3
# [37] = target: AAK1 (Homo sapiens (Human), UniProt Q2M2I8); assay: KINOMEscan binding assay; details: percent of control
# [38] = target: MKK7 (Homo sapiens (Human), UniProt O14733); assay: KINOMEscan binding assay; details: percent of control
# [39] = target: ABL1(T3151)-non-phosphorylated (Homo sapiens (Human), UniProt P00519, T315I); assay: KINOMEscan binding assay; details: percent of control
# [40] = target: CAMK4 (Homo sapiens (Human), UniProt Q16566); assay: KINOMEscan binding assay; details: percent of control
# T1 sequence (Q13163 whole entry, canonical isoform): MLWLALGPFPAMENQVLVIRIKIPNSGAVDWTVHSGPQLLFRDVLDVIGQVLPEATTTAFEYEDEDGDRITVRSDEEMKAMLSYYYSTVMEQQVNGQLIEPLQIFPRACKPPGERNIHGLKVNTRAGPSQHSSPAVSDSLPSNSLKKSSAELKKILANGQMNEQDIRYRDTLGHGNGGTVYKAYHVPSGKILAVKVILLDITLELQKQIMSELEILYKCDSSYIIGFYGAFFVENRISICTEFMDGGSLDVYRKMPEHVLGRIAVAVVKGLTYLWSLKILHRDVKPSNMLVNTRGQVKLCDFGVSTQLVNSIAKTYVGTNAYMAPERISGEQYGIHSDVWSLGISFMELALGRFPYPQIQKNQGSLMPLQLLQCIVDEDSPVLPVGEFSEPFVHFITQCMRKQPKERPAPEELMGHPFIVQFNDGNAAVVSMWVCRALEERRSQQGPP
# Sequence of MEK3 (P46734 whole entry, canonical isoform): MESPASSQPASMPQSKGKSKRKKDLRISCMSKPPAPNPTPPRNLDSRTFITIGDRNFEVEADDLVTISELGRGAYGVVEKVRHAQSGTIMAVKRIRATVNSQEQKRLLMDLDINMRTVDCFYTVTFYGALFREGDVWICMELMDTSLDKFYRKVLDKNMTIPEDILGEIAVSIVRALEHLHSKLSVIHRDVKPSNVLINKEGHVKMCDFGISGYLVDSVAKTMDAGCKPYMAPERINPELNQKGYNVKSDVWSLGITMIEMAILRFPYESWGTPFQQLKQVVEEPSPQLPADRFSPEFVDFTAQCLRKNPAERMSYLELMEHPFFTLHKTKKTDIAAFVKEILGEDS
# Sequence of EPHA6 (Q9UF33 23-1036): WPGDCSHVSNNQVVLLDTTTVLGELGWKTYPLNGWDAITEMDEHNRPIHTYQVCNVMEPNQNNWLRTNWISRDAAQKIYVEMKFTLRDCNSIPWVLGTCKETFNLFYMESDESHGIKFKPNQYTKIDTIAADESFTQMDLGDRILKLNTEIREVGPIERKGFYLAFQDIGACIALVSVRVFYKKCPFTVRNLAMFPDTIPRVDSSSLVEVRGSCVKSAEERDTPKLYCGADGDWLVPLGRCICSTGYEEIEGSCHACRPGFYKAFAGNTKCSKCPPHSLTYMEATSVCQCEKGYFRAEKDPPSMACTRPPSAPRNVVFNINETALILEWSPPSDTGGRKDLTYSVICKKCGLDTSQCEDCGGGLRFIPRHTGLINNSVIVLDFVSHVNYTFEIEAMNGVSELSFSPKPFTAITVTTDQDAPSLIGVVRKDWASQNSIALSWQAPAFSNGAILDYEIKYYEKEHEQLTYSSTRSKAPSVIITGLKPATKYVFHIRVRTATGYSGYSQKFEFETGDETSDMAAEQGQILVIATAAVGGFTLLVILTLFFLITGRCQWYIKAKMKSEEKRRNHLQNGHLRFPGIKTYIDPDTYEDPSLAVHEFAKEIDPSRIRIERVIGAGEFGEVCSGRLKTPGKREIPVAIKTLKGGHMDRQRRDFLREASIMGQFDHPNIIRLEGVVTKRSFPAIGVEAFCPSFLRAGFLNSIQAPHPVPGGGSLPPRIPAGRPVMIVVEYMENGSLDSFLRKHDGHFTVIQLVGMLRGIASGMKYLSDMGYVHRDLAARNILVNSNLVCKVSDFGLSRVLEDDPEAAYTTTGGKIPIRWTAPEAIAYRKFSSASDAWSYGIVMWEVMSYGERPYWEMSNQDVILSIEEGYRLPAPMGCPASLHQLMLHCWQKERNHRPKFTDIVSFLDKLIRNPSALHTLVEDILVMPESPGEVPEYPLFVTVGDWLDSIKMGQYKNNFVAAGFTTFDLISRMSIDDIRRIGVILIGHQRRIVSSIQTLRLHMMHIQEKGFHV
# Sequence of EPHA2 (P29317 24-976): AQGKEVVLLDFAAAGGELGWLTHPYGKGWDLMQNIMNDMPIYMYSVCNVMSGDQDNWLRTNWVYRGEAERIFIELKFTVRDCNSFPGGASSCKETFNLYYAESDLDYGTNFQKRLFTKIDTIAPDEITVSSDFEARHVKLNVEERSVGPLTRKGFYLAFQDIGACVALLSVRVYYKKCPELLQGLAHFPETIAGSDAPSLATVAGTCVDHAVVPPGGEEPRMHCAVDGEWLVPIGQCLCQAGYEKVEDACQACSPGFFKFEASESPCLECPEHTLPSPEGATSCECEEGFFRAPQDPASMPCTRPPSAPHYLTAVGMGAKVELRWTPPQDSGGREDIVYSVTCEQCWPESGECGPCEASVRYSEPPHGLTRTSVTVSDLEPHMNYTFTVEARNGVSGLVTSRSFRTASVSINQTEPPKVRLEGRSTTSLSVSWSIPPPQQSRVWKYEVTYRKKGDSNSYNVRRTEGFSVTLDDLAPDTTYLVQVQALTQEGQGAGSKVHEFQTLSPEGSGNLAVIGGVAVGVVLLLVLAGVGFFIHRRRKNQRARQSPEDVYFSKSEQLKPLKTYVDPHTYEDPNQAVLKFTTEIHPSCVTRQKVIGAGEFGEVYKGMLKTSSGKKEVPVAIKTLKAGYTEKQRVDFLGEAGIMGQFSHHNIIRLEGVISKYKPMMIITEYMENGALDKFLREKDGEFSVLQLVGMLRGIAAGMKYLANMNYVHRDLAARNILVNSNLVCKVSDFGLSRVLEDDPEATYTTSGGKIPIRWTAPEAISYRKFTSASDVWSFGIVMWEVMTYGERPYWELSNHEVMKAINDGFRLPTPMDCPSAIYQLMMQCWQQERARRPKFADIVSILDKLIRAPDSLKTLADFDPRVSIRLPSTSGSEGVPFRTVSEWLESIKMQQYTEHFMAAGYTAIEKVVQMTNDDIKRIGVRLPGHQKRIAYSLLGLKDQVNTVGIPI
# Sequence of PRKCD (Q05655 whole entry): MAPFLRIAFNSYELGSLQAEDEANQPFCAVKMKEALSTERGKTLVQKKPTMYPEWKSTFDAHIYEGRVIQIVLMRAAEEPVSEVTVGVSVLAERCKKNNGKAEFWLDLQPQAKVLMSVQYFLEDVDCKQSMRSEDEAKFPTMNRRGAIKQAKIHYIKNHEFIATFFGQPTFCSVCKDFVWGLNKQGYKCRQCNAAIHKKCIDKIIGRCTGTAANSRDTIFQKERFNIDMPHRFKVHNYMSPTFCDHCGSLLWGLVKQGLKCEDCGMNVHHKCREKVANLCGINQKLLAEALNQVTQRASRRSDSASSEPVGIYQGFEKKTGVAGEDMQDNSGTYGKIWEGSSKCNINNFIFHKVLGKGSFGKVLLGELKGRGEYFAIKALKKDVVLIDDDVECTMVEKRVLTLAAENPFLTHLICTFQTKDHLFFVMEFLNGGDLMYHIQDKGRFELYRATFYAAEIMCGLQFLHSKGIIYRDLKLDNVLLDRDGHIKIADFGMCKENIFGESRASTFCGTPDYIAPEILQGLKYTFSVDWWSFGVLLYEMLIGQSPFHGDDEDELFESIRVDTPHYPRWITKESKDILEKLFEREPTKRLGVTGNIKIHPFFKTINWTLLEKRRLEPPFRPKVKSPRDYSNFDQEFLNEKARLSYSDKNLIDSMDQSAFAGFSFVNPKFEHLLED
# Sequence of ZAP70 (P43403 whole entry): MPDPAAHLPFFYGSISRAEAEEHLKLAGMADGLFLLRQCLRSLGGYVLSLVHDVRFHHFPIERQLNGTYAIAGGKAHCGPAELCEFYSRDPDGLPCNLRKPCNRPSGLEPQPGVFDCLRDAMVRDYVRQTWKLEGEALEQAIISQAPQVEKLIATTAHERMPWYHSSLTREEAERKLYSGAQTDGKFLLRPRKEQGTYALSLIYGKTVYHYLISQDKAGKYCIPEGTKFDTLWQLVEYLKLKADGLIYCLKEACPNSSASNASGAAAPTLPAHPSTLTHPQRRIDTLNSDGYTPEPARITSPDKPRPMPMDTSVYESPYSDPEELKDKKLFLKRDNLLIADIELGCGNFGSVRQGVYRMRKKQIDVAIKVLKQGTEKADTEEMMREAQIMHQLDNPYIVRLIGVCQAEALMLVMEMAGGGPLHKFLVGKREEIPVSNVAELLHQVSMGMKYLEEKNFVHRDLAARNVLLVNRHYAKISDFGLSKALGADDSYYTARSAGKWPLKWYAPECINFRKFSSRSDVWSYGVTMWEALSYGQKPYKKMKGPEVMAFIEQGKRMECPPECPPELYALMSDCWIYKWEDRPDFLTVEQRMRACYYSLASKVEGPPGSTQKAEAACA
# Sequence of TEC (P42680 whole entry): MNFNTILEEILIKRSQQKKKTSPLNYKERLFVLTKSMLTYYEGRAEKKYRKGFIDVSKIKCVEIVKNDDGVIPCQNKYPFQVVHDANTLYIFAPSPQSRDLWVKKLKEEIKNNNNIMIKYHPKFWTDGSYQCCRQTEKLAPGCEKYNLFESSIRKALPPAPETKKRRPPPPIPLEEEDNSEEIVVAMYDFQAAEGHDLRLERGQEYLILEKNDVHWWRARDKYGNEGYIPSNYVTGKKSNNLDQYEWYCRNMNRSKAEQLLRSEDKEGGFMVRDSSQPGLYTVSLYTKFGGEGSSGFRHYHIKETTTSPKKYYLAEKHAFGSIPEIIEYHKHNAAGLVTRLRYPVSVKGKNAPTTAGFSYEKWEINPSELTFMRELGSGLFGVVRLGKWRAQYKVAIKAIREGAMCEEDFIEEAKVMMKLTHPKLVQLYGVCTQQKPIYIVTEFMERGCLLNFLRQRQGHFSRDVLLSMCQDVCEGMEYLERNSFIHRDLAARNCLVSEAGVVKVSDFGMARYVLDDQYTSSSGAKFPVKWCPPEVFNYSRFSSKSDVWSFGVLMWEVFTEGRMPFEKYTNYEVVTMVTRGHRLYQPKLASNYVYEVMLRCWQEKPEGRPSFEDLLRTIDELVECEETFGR
SMILES,% Ctrl @ 10000 nM [1] [% Ctrl],% Ctrl @ 10000 nM [2] [% Ctrl],% Ctrl @ 10000 nM [3] [% Ctrl],% Ctrl @ 10000 nM [4] [% Ctrl],% Ctrl @ 10000 nM [5] [% Ctrl],% Ctrl @ 10000 nM [6] [% Ctrl],% Ctrl @ 10000 nM [7] [% Ctrl],% Ctrl @ 10000 nM [8] [% Ctrl],IC50 [9] [µM],% Ctrl @ 10000 nM [10] [% Ctrl],% Ctrl @ 10000 nM [11] [% Ctrl],% Ctrl @ 10000 nM [12] [% Ctrl],% Ctrl @ 10000 nM [13] [% Ctrl],% Ctrl @ 10000 nM [14] [% Ctrl],% Ctrl @ 10000 nM [15] [% Ctrl],% Ctrl @ 10000 nM [16] [% Ctrl],% Ctrl @ 10000 nM [17] [% Ctrl],% Ctrl @ 10000 nM [18] [% Ctrl],IC50 [19] [µM],% Ctrl @ 10000 nM [20] [% Ctrl],also measured
"O=C(O)c1cccc(-c2n[nH]c3ccccc23)c1 [Compound 6a, 3-(1H-indazol-3-yl)benzoic Acid]",59,40,86,95,100,43,100,50,> 27,100,100,68,97,97,70,97,90,92,> 27,93,"% Ctrl @ 10000 nM [21]: 76 % Ctrl; % Ctrl @ 10000 nM [22]: 85 % Ctrl; % Ctrl @ 10000 nM [23]: 0 % Ctrl; % Ctrl @ 10000 nM [24]: 100 % Ctrl; number of kinases hit, out of 57 tested [25]: 5; % Ctrl @ 10000 nM [26]: 98 % Ctrl; % Ctrl @ 10000 nM [27]: 20 % Ctrl; IC50 [28]: 12 µM; % Ctrl @ 10000 nM [29]: 100 % Ctrl; % Ctrl @ 10000 nM [30]: 97 % Ctrl; % Ctrl @ 10000 nM [31]: 88 % Ctrl; % Ctrl @ 10000 nM [32]: 100 % Ctrl; % Ctrl @ 10000 nM [33]: 100 % Ctrl; % Ctrl @ 10000 nM [34]: 43 % Ctrl; % Ctrl @ 10000 nM [35]: 66 % Ctrl; IC50 [36]: 16 µM; % Ctrl @ 10000 nM [37]: 87 % Ctrl; % Ctrl @ 10000 nM [38]: 66 % Ctrl; % Ctrl @ 10000 nM [39]: 67 % Ctrl; % Ctrl @ 10000 nM [40]: 100 % Ctrl"
"O=C(O)c1ccc(-c2n[nH]c3cc(F)ccc23)cc1 [Compound 6ff, 4-(6-fluoro-2H-indazol-3-yl)benzoic Acid]",11,12,73,98,65,48,100,14,> 27,100,100,53,86,100,73,99,100,100,> 27,100,"% Ctrl @ 10000 nM [21]: 39 % Ctrl; % Ctrl @ 10000 nM [22]: 81 % Ctrl; % Ctrl @ 10000 nM [23]: 28 % Ctrl; % Ctrl @ 10000 nM [24]: 100 % Ctrl; number of kinases hit, out of 57 tested [25]: 12; % Ctrl @ 10000 nM [26]: 89 % Ctrl; % Ctrl @ 10000 nM [27]: 3.5 % Ctrl; IC50 [28]: 15 µM; % Ctrl @ 10000 nM [29]: 100 % Ctrl; % Ctrl @ 10000 nM [30]: 99 % Ctrl; % Ctrl @ 10000 nM [31]: 44 % Ctrl; % Ctrl @ 10000 nM [32]: 95 % Ctrl; % Ctrl @ 10000 nM [33]: 100 % Ctrl; % Ctrl @ 10000 nM [34]: 26 % Ctrl; % Ctrl @ 10000 nM [35]: 43 % Ctrl; IC50 [36]: > 27 µM; % Ctrl @ 10000 nM [37]: 55 % Ctrl; % Ctrl @ 10000 nM [38]: 52 % Ctrl; % Ctrl @ 10000 nM [39]: 15 % Ctrl; % Ctrl @ 10000 nM [40]: 100 % Ctrl"
